Laboratory results as given in US12091561B2, “Recording method and recording apparatus” (Seiko Epson Corporation, priority 2021, dated 2024).

Procedure: The solubility is measured as described below. A predetermined amount of a compound is mixed with 100 g of water in an environment at 25° C. and is then stirred for 30 minutes. […] As described above, when a predetermined amount of the compound is mixed with 100 g of water, the maximum predetermined amount which is judged to be dissolved is used as the solubility.

SMILES	SOLUBILITY [g/100 g OF WATER]
OC1CCCCC1O (stereo not drawn) [1,2-CYCLOHEXANEDIOL, 1,2-cyclohexanediol]	>100 g/100 g OF WATER
CC(C)(O)C(C)(C)O [PINACOL, pinacol]	∞
O=C1CCCCCN1 [ε-CAPROLACTAM, ε-caprolactam]	>100 g/100 g OF WATER
CC(C)(CO)CO [NEOPENTYL GLYCOL, neopentyl glycol]	80 g/100 g OF WATER
CC(O)CO (stereo not drawn) [PROPYLENE GLYCOL, propylene glycol]	∞
CC(C)(O)CCC(C)(C)O [2,5-dimethyl-2,5-hexanediol]	14 g/100 g OF WATER
